Measurements published in patent US9403823B2, “Protein kinase inhibitors” (ORIBASE PHARMA, priority 2012, dated 2016).
Where two headings read alike, the source gives them in different places.

How the values were obtained:
A549 cell line = experiment: In vitro cell proliferation assay (MTT), A549; type: cell-based; conditions: Homo sapiens, read-out: EC50, anti-proliferative activity
Experimental: (§1) 2) In Vitro Cell Proliferation Assays (Table 22 to Table 35)
(§2) Cancer cell lines (5×10^3 cells per well) or HUVEC (1×10^4 cells per well) or HRMEC (1×10^4 cells per well) were distributed in 96-well plates and incubating in duplicate with escalating concentrations (10 nM to 3 μM) of compounds for 72 hr. Cell proliferation was measured using MTT (3[4,5-dimethylthiazol-2-yl]-2,5-diphenyltetrazolium bromide).

HepG2 cell line = experiment: In vitro cell proliferation assay (MTT), HepG2; type: cell-based; conditions: Homo sapiens, read-out: EC50, anti-proliferative activity
Experimental: as §1, §2

HUVEC = experiment: In vitro cell proliferation assay (MTT), HUVEC; type: cell-based; conditions: Homo sapiens, read-out: EC50, anti-proliferative activity
Experimental: as §1, §2

MDA-MB-231 cell line = experiment: In vitro cell proliferation assay (MTT), MDA-MB-231; type: cell-based; conditions: Homo sapiens, read-out: EC50, anti-proliferative activity
Experimental: as §1, §2

HeLa cell line = experiment: In vitro cell proliferation assay (MTT), HeLa; type: cell-based; conditions: Homo sapiens, read-out: EC50, anti-proliferative activity
Experimental: as §1, §2

BRAF = target: T1, BRAF (Homo sapiens, UniProt P15056); experiment: In vitro kinase assay (Z'-LYTE), BRAF; type: biochemical; conditions: read-out: % of inhibition of the kinase compared to the control
T1 construct: purchased Invitrogen
T1 sequence (P15056 whole entry): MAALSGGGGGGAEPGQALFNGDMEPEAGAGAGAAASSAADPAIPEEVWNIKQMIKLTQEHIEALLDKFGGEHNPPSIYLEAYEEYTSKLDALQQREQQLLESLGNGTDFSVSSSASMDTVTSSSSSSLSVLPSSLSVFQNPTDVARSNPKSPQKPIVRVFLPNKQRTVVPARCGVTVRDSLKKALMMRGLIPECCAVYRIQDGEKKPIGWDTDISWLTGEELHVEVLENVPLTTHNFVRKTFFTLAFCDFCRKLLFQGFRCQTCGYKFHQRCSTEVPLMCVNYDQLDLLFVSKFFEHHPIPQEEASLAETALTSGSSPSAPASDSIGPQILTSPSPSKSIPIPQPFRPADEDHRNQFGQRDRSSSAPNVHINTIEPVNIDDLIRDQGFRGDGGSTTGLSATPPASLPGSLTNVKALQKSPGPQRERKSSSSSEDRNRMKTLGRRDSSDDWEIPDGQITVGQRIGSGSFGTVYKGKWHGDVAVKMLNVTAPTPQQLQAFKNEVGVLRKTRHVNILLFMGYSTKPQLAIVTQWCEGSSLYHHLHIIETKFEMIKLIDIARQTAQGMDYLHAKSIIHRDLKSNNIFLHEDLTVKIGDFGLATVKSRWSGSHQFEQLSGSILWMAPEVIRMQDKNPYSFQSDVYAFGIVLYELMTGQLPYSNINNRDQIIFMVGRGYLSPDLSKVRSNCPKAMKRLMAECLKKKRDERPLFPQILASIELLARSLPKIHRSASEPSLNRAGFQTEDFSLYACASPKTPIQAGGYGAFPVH
Experimental: (§3) 1) In Vitro Kinase Assays (Table 10 to Table 21)
(§4) The inhibitory activity of the compounds on several kinases including BRAF, EGFR (ErbB1), EGFR (ErbB1) T790M L858R, FGFR2, KDR (VEGFR2), PDGFRA (PDGFR alpha), SRC and other was evaluated by Invitrogen using the Z′-LYTE® technology. Briefly, the Z′-LYTE® biochemical assay employs a fluorescence-based, coupled-enzyme format and is based on the differential sensitivity of phosphorylated and non-phosphorylated peptides to proteolytic cleavage. The peptide substrate is labeled with two fluorophores—one at each end—that make up a FRET pair. A ratiometric method, which calculates the ratio (the Emission Ratio) of donor emission to acceptor emission after excitation of the donor fluorophore at 400 nm, is used to quantitate reaction progress.
(§5) The compounds are screened in 1% DMSO (final) in the well. For 10 point titrations, 3-fold serial dilutions are conducted from the starting concentration. All Peptide/Kinase Mixtures are diluted to a 2× working concentration in the appropriate Kinase Buffer. All ATP Solutions are diluted to a 4× working concentration in Kinase Buffer (50 mM HEPES pH 7.5, 0.01% BRIJ-35, 10 mM MgCl2, 1 mM EGTA). ATP Km apparent is previously determined using a Z′-LYTE® assay.
(§6) Each compound was incubated at a concentration of 100 nM (excepted to test the activity against ABL and ABL T315I for which the compounds were incubated at a concentration of 10 μM) and the tables 10 to 21 summarize the results obtained showing the inhibitory power of a compound.

EGFR (ErbB1) = target: T2, EGFR (ErbB1) (Homo sapiens, UniProt P00533); experiment: In vitro kinase assay (Z'-LYTE), EGFR (ErbB1); type: biochemical; conditions: read-out: % of inhibition of the kinase compared to the control
T2 construct: purchased Invitrogen
T2 sequence (P00533 25-1210): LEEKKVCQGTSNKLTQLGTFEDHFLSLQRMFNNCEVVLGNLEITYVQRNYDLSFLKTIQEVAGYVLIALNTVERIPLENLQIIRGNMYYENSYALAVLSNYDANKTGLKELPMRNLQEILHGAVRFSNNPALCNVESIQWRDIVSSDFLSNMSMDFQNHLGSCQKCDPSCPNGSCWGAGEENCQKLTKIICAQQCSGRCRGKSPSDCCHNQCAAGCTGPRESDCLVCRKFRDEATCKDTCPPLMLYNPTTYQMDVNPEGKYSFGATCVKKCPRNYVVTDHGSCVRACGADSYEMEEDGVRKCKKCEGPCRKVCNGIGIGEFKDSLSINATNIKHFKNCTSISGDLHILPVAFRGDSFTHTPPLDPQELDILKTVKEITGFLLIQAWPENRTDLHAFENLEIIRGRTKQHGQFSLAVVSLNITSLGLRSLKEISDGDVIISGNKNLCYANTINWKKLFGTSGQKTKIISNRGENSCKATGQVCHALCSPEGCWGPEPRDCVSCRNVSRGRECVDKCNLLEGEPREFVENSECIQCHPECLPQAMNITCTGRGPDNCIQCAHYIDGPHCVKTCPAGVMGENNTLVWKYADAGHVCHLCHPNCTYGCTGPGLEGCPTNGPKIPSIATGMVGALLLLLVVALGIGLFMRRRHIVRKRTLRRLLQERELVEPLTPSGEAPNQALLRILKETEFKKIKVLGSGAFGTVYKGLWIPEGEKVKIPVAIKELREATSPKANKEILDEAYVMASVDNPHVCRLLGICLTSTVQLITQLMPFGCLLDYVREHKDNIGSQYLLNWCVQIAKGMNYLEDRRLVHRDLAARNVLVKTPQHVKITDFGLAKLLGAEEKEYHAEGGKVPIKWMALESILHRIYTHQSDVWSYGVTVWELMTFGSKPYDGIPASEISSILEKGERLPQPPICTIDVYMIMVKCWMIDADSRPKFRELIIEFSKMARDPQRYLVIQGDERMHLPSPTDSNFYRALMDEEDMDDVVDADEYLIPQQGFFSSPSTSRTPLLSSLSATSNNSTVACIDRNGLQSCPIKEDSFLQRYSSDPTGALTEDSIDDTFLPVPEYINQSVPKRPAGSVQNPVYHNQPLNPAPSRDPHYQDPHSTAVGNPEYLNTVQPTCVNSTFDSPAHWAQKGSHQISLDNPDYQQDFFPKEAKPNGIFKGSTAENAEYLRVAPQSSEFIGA
Experimental: as §3, §4, §5, §6

FGFR2 = target: T3, FGFR2 (Homo sapiens, UniProt P21802); experiment: In vitro kinase assay (Z'-LYTE), FGFR2; type: biochemical; conditions: read-out: % of inhibition of the kinase compared to the control
T3 construct: purchased Invitrogen
T3 sequence (P21802 22-821): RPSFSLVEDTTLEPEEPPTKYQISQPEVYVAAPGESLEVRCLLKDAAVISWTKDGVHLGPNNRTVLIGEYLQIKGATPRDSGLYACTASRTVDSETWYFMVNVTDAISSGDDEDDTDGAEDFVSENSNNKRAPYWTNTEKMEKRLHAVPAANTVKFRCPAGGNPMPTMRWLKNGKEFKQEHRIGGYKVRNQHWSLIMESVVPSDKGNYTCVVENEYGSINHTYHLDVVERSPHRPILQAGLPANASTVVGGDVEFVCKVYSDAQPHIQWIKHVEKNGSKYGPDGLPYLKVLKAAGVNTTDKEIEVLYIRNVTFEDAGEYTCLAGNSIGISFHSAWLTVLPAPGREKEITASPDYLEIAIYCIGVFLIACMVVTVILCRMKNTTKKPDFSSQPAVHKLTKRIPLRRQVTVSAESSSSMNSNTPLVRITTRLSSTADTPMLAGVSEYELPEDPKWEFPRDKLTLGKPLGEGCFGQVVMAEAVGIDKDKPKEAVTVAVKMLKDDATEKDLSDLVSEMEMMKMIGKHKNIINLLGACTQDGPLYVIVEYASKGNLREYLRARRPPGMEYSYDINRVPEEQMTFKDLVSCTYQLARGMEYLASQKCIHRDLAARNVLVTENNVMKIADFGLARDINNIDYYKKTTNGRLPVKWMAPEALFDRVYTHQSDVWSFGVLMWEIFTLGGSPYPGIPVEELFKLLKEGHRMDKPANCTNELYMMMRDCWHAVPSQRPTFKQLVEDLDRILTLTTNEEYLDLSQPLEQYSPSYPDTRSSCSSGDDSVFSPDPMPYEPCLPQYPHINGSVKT
Experimental: as §3, §4, §5, §6

KDR (VEGFR2) = target: T4, KDR (VEGFR2) (Homo sapiens, UniProt P35968); experiment: In vitro kinase assay (Z'-LYTE), KDR (VEGFR2); type: biochemical; conditions: read-out: % of inhibition of the kinase compared to the control
T4 construct: purchased Invitrogen
T4 sequence (P35968 20-1356): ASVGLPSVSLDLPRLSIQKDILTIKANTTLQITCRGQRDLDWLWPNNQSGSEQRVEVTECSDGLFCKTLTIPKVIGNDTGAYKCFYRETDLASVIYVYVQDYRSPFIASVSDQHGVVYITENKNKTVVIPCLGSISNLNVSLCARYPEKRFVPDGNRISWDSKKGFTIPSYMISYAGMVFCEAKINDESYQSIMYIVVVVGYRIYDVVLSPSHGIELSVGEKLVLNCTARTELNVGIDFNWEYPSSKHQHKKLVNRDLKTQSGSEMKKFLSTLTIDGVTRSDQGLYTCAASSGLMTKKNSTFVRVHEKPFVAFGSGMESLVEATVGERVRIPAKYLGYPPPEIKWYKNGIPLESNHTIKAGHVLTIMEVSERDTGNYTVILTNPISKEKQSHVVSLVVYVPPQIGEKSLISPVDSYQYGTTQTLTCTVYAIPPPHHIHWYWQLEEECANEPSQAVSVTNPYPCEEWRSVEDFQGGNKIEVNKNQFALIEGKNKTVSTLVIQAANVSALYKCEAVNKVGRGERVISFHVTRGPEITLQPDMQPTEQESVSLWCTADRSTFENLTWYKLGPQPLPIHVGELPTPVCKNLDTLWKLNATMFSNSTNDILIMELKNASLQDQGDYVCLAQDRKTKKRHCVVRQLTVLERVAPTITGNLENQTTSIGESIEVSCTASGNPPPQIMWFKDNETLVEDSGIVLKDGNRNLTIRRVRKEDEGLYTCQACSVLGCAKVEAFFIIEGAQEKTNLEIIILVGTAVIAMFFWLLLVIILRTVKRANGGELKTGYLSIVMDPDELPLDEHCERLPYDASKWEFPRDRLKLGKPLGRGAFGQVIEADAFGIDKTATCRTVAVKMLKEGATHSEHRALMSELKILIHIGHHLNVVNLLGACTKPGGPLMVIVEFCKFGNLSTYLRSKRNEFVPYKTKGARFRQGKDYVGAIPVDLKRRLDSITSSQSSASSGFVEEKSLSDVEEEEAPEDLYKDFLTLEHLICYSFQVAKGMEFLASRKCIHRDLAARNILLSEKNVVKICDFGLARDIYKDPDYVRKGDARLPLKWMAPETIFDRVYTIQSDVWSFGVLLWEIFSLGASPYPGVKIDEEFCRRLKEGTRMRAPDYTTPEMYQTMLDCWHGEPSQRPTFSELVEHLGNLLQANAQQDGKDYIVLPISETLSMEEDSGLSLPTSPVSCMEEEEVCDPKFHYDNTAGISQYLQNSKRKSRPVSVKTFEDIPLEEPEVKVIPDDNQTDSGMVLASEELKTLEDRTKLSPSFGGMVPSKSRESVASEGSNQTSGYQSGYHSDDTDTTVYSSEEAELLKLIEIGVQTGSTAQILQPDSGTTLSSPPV
Experimental: as §3, §4, §5, §6

PDGFRA (PDGFR alpha) = target: T5, PDGFRA (PDGFR alpha) (Homo sapiens, UniProt P16234); experiment: In vitro kinase assay (Z'-LYTE), PDGFRA; type: biochemical; conditions: read-out: % of inhibition of the kinase compared to the control
T5 construct: purchased Invitrogen
Experimental: as §3, §4, §5, §6

SRC = target: T6, SRC (Homo sapiens, UniProt P12931); experiment: In vitro kinase assay (Z'-LYTE), SRC; type: biochemical; conditions: read-out: % of inhibition of the kinase compared to the control
T6 construct: purchased Invitrogen
T6 sequence (P12931 whole entry): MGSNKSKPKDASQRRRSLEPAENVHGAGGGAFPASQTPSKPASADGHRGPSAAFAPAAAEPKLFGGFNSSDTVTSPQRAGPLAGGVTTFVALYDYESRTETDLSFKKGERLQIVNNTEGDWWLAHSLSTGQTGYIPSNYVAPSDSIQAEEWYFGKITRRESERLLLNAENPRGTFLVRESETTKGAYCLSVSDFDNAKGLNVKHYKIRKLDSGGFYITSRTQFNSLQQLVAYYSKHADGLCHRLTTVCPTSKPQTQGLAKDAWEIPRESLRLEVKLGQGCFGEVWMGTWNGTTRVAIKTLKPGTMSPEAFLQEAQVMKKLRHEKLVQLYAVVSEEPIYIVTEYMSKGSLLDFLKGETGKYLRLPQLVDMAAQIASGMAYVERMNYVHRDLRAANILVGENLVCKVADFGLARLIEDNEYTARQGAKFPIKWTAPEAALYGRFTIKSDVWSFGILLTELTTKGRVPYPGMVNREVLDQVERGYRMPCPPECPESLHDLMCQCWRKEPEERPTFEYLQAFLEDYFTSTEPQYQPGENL
Experimental: as §3, §4, §5, §6

EGFR (ErbB1) T790M L858R = target: T7, EGFR (ErbB1) T790M L858R (Homo sapiens, UniProt P00533, L858R/T790M); experiment: In vitro kinase assay (Z'-LYTE), EGFR (ErbB1) T790M L858R; type: biochemical; conditions: read-out: % of inhibition of the kinase compared to the control
T7 construct: purchased Invitrogen
Experimental: as §3, §4, §5, §6

EC50 (A549 cell line; A549, 72 hr, MTT) [nM] | EC50 (HepG2 cell line; HepG2, 72 hr, MTT) [nM] | EC50 (MDA-MB-231 cell line; MDA-MB-231, 72 hr, MTT) [nM] | EC50 (HeLa cell line; 72 hr, MTT) [nM] | inhibition at 0.1 µM (BRAF) [%] | inhibition at 0.1 µM (EGFR (ErbB1)) [%] | inhibition at 0.1 µM (FGFR2) [%] | inhibition at 0.1 µM (KDR (VEGFR2)) [%] | inhibition at 0.1 µM (PDGFRA (PDGFR alpha)) [%] | inhibition at 0.1 µM (SRC) [%] | EC50 (HepG2 cell line; HepG2, 72 h) [nM] | EC50 (MDA-MB-231 cell line; MDA-MB-231, 72 h) [nM] | EC50 (A549 cell line; A549, 72 h) [nM] | inhibition at 0.1 µM (EGFR (ErbB1) T790M L858R) [%] | EC50 (HeLa cell line; 72 h) [nM] | SMILES | EC50 (HUVEC; 72 hr, MTT) [nM] | EC50 (HUVEC; 72 h) [nM]
≥ 1000 | ≥ 1000 | ≥ 1000 | ≥ 1000 | – | – | – | – | – | – | – | – | – | – | – | CC(=O)c1cc2cc(NCc3cc(NC(=O)C4CCC(C(F)(F)F)CC4)ccc3F)cnc2[nH]1 (centres unmarked) [OR1058, 4-Trifluoromethyl-cyclohexanecarboxylic acid {3-[(2-acetyl-1H-pyrrolo[2,3-b]pyridin-5-ylamino)-methyl]-4-fluoro-phenyl}-amide] | ≥ 1000 | –
≥ 1000 | ≥ 1000 | ≥ 1000 | – | < 50 | ≥ 50 | < 50 | < 50 | ≥ 50 | ≥ 50 | – | – | – | – | – | Cc1ccc(NC(=O)c2cncc(C(F)(F)F)c2)cc1C(=S)Nc1cnc2[nH]c(C(=O)O)cc2c1 [OR1053] | ≥ 1000 | –
≥ 1000 | ≥ 1000 | ≥ 1000 | ≥ 1000 | – | – | – | – | – | – | – | – | – | – | – | COc1ccccc1C(=O)Nc1ccc(F)c(CNc2cnc3[nH]c(C(C)=O)cc3c2)c1 [OR1063, N-{3-[(2-Acetyl-1H-pyrrolo[2,3-b]pyridin-5-ylamino)-methyl]-4-fluoro-phenyl}-2-methoxy-benzamide] | ≥ 1000 | –
≥ 1000 | – | – | ≥ 1000 | ≥ 50 | ≥ 50 | ≥ 50 | ≥ 50 | – | – | 100 to 1000 | 100 to 1000 | – | – | – | CC(=O)c1cc2cc(NCc3cc(NC(=O)c4ccc(CN5CCN(C)CC5)c(F)c4)ccc3C)cnc2[nH]1 [OR0885, N-{3-[(2-Acetyl-1H-pyrrolo[2,3-b]pyridin-5-ylamino)-methyl]-4-methyl-phenyl}-3-fluoro-4-(4-methyl-piperazin-1-ylmethyl)-benzamide] | ≥ 1000 | –
– | – | – | – | – | – | – | – | – | – | – | – | 100 to 1000 | – | – | CCN(CC)C(=O)c1cc2cc(NCc3cc(NC(=O)c4ccc(CN5CCN(C)CC5)c(C(F)(F)F)c4)ccc3C)cnc2[nH]1 [OR1076, 5-{2-Methyl-5-[4-(4-methyl-piperazin-1-ylmethyl)-3-trifluoromethyl-benzoylamino]-benzylamino}-1H-pyrrolo[2,3-b]pyridine-2-carboxylic acid diethylamide] | – | –
– | – | – | – | ≥ 50 | < 50 | < 50 | < 50 | < 50 | ≥ 50 | – | – | – | < 50 | – | CC(=O)c1cc2cc(NCc3cc(NC(=O)c4cc(-n5cnc(C)c5)cc(C(F)(F)F)c4)ccc3C)cnc2[nH]1 [OR0719, N-{3-[(2-Acetyl-1H-pyrrolo[2,3-b]pyridin-5-ylamino)-methyl]-4-methyl-phenyl}-3-(4-methyl-imidazol-1-yl)-5-trifluoromethyl-benzamide] | – | –
≥ 1000 | – | – | – | – | – | – | – | – | – | – | – | – | – | – | C#Cc1cccc(Nc2ncnc3cc(OCCOC)c(OCCOC)cc23)c1 [Erlotinib, reference compound] | – | –
– | – | – | – | < 50 | ≥ 50 | < 50 | ≥ 50 | ≥ 50 | ≥ 50 | – | – | – | < 50 | – | Cc1ccc(NC(=O)c2ccc(CN3CCN(C)CC3)cc2)cc1CNc1cnc2[nH]c(C(=O)O)cc2c1 [OR0692, 5-{2-Methyl-5-[4-(4-methyl-piperazin-1-ylmethyl)-benzoylamino]-benzylamino}-1H-pyrrolo[2,3-b]pyridine-2-carboxylic acid] | – | –
– | – | – | – | < 50 | ≥ 50 | ≥ 50 | ≥ 50 | – | – | ≤ 100 | ≤ 100 | 100 to 1000 | – | 100 to 1000 | CC(=O)c1cc2cc(NCc3cccc(NC(=O)c4ccc(CN5CCN(C)CC5)c(C(F)(F)F)c4)c3)cnc2[nH]1 [OR0926, N-{3-[(2-Acetyl-1H-pyrrolo[2,3-b]pyridin-5-ylamino)-methyl]-phenyl}-4-(4-methyl-piperazin-1-ylmethyl)-3-trifluoromethyl-benzamide] | – | 100 to 1000
– | – | – | ≥ 1000 | – | – | – | – | – | – | 100 to 1000 | 100 to 1000 | – | – | – | CCCCCCNC(=O)c1cc2cc(NCc3cc(NC(=O)c4ccc(CN5CCN(C)CC5)c(C(F)(F)F)c4)ccc3C)cnc2[nH]1 [OR1069, 5-{2-Methyl-5-[4-(4-methyl-piperazin-1-ylmethyl)-3-trifluoromethyl-benzoylamino]-benzylamino}-1H-pyrrolo[2,3-b]pyridine-2-carboxylic acid hexylamide] | – | 100 to 1000
– | – | – | – | < 50 | ≥ 50 | ≥ 50 | ≥ 50 | – | – | ≤ 100 | ≤ 100 | 100 to 1000 | – | 100 to 1000 | CC(=O)c1cc2cc(NCc3cc(NC(=O)c4ccc(CN5CCN(C)CC5)c(C(F)(F)F)c4)ccc3F)cnc2[nH]1 [OR0972, N-{3-[(2-Acetyl-1H-pyrrolo[2,3-b]pyridin-5-ylamino)-methyl]-4-fluoro-phenyl}-4-(4-methyl-piperazin-1-ylmethyl)-3-trifluoromethyl-benzamide] | – | 100 to 1000
– | ≥ 1000 | – | – | ≥ 50 | < 50 | < 50 | ≥ 50 | ≥ 50 | < 50 | – | – | – | – | – | CC(=O)c1cc2cc(NCc3cc(NC(=O)c4ccn[nH]4)ccc3C)cnc2[nH]1 [OR0987, 2H-Pyrazole-3-carboxylic acid {3-[(2-acetyl-1H-pyrrolo[2,3-b]pyridin-5-ylamino)-methyl]-4-methyl-phenyl}-amide] | ≥ 1000 | –
– | ≥ 1000 | – | – | ≥ 50 | < 50 | < 50 | < 50 | ≥ 50 | < 50 | – | – | – | – | – | CC(=O)c1cc2cc(NCc3cc(NC(=O)c4ccc5[nH]nnc5c4)ccc3C)cnc2[nH]1 [OR0979, 1H-Benzotriazole-5-carboxylic acid {3-[(2-acetyl-1H-pyrrolo[2,3-b]pyridin-5-ylamino)-methyl]-4-methyl-phenyl}-amide] | ≥ 1000 | –
– | – | – | – | < 50 | ≥ 50 | < 50 | < 50 | ≥ 50 | ≥ 50 | 100 to 1000 | – | – | – | – | CC(=O)c1cc2cc(NCc3cc(NC(=O)c4ccc(C)c(C(F)(F)F)c4)ccc3C)cnc2[nH]1 [OR0890, N-{3-[(2-Acetyl-1H-pyrrolo[2,3-b]pyridin-5-ylamino)-methyl]-4-methyl-phenyl}-4-methyl-3-trifluoromethyl-benzamide] | – | 100 to 1000
– | – | – | ≥ 1000 | – | – | – | – | – | – | ≤ 100 | 100 to 1000 | 100 to 1000 | – | – | CC(=O)c1cc2cc(NCc3cc(NC(=O)c4cc(N5CCN(C)CC5)cc(C(F)(F)F)c4)ccc3F)cnc2[nH]1 [OR1060, N-{3-[(2-Acetyl-1H-pyrrolo[2,3-b]pyridin-5-ylamino)-methyl]-4-fluoro-phenyl}-3-(4-methyl-piperazin-1-yl)-5-trifluoromethyl-benzamide] | – | 100 to 1000
– | ≥ 1000 | – | – | < 50 | < 50 | < 50 | < 50 | < 50 | < 50 | – | – | – | – | – | CC(=O)c1cc2cc(NCc3cc(NS(=O)(=O)c4cccc(C(F)(F)F)c4)ccc3C)cnc2[nH]1 [OR0930, N-{3-[(2-Acetyl-1H-pyrrolo[2,3-b]pyridin-5-ylamino)-methyl]-4-methyl-phenyl}-3-trifluoromethyl-benzenesulfonamide] | ≥ 1000 | –
